Laboratory results from patent US12331044B2, “Inhibitors of histone deacetylase useful for the treatment or prevention of HIV infection” (Merck Sharp & Dohme LLC, priority 2018, dated 2025).
Where two headings read alike, the source gives them in different places.

Experiments:
KARN cells (Jurkat 2C4) = experiment: cells; conditions: Homo sapiens
HDAC6 = HDAC6 (Homo sapiens (Human), UniProt Q9UBN7)
[1] = read-out: Karn EC50 nM 0.1% NHS, 0.1% normal human serum, luciferase induction, 2 μM SAHA = 100%
[2] = read-out: Karn EC50 nM 5% NHS, 5% normal human serum, luciferase induction, 2 μM SAHA = 100%

HDAC6, sequence (Q9UBN7 whole entry): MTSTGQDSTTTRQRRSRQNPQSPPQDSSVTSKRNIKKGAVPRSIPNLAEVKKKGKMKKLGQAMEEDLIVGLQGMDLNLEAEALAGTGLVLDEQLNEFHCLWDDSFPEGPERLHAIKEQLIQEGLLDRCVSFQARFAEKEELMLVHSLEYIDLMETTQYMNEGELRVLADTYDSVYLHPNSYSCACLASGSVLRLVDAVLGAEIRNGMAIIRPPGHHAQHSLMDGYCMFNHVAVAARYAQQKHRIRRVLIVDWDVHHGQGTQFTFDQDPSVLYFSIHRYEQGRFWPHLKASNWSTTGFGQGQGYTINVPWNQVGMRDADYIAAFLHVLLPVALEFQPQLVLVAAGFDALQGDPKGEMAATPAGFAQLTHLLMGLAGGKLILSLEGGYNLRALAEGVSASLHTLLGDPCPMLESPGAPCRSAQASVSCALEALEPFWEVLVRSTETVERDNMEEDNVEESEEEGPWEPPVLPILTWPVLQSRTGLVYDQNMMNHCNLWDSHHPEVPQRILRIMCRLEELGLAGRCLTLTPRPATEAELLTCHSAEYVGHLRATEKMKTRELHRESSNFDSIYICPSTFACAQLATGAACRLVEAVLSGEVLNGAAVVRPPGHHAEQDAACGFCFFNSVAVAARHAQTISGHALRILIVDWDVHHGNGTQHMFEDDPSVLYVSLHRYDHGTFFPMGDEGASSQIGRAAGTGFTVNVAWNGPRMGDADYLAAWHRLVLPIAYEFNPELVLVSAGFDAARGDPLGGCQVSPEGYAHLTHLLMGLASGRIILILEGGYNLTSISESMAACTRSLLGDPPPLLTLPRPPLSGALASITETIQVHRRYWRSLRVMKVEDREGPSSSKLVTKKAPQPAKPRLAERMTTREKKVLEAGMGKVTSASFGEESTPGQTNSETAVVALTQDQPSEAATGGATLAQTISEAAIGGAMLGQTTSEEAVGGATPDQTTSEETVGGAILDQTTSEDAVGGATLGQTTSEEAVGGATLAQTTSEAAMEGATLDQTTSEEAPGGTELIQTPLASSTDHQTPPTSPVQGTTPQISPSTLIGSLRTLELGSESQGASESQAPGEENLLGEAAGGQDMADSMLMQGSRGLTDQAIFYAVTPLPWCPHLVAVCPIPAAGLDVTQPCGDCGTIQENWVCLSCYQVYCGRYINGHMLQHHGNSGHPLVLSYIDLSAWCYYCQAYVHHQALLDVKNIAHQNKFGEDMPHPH

CCN1CCC2(CC1)C[C@@H]2C(=O)N[C@@H](CCCCCC(=O)c1ccon1)c1cc(-c2ccccc2F)on1 [Example 175, (1S)-6-ethyl-N-{(1S)-1-[5-(2-fluorophenyl)isoxazol-3-yl]-7-isoxazol-3-yl-7-oxoheptyl}-6-azaspiro[2.5]octane-1-carboxamide]
EC50 (KARN cells (Jurkat 2C4); [1]): 13 nM | EC50 (KARN cells (Jurkat 2C4); [2]): 19 nM

CN1CC(C(=O)N[C@@H](CCCCCC(=O)c2ccon2)c2nc(Cl)c(-c3ccc(F)cc3)[nH]2)C1 [Example 196, (S)-N-(1-(4-chloro-5-(4-fluorophenyl)-1H-imidazol-2-yl)-7-(isoxazol-3-yl)-7-oxoheptyl)-1-methylazetidine-3-carboxamide 2,3-dihydroxysuccinate]
EC50 (KARN cells (Jurkat 2C4); [1]): 3.8 nM | EC50 (KARN cells (Jurkat 2C4); [2]): 7.5 nM | IC50 (HDAC6): 4600 nM

O=C(CCCCC[C@H](NC(=O)[C@H]1CC12CCOCC2)c1nc(-c2ccc(F)cc2)c[nH]1)c1ncco1 [Example 5, N-((S)-1-(4-(4-fluorophenyl)-1H-imidazol-2-yl)-7-(oxazol-2-yl)-7-oxoheptyl)-6-oxaspiro[2.5]octane-1-carboxamide]
EC50 (KARN cells (Jurkat 2C4); [1]): 63 nM | EC50 (KARN cells (Jurkat 2C4); [2]): 130 nM | IC50 (HDAC6): 45000 nM

CCN1CCC2(CC1)C[C@@H]2C(=O)N[C@@H](CCCCCC(=O)c1ccon1)c1cc(-c2ccc3nn(C)cc3c2)on1 [Example 176, (1S)-6-ethyl-N-{(1S)-7-isoxazol-3-yl-1-[5-(2-methyl-2H-indazol-5-yl)isoxazol-3-yl]-7-oxoheptyl}-6-azaspiro[2.5]octane-1-carboxamide]
EC50 (KARN cells (Jurkat 2C4); [1]): 14 nM | EC50 (KARN cells (Jurkat 2C4); [2]): 13 nM

COc1ncccc1-c1cnc([C@H](CCCCCC(=O)c2ncco2)NC(=O)C2CN(C)C2)o1 (stereo in doubt) [Example 104, N-(1-(5-(2-methoxypyridin-3-yl)oxazol-2-yl)-7-(oxazol-2-yl)-7-oxoheptyl)-1-methylazetidine-3-carboxamide]
EC50 (KARN cells (Jurkat 2C4); [1]): 40 nM | EC50 (KARN cells (Jurkat 2C4); [2]): 44 nM | IC50 (HDAC6): > 900 nM

COc1nc(C)ccc1-c1c[nH]c([C@@H](N)CCCCCC(=O)c2ncco2)n1 [Example 11]
EC50 (KARN cells (Jurkat 2C4); [1]): 620 nM | EC50 (KARN cells (Jurkat 2C4); [2]): 670 nM | IC50 (HDAC6): 45000 nM

COc1nc2cnccc2cc1-c1c[nH]c([C@@H](N)CCCCCC(=O)c2ncco2)n1 [Example 13]
EC50 (KARN cells (Jurkat 2C4); [1]): 94 nM | EC50 (KARN cells (Jurkat 2C4); [2]): 140 nM | IC50 (HDAC6): 45000 nM

CN(C)c1ccc2cc(-c3cnc([C@@H](N)CCCCCC(=O)c4ncco4)[nH]3)ccc2n1 [Example 18]
EC50 (KARN cells (Jurkat 2C4); [1]): 93 nM | EC50 (KARN cells (Jurkat 2C4); [2]): 130 nM | IC50 (HDAC6): > 1500 nM

CN(C)CC(=O)N[C@@H](CCCCCC(=O)c1ccon1)c1nc(-c2ccccc2F)c[nH]1 [Example 47]
EC50 (KARN cells (Jurkat 2C4); [1]): 3.7 nM | EC50 (KARN cells (Jurkat 2C4); [2]): 10 nM | IC50 (HDAC6): 9100 nM

N[C@@H](CCCCCC(=O)c1ncco1)c1ncc(-c2cc(OC(F)(F)F)ccc2F)[nH]1 [Example 142, (7S)-7-amino-7-{5-[2-fluoro-5-(trifluoromethoxy)phenyl]-1H-imidazol-2-yl}-1-(1,3-oxazol-2-yl)heptan-1-one]
EC50 (KARN cells (Jurkat 2C4); [1]): 1200 nM | EC50 (KARN cells (Jurkat 2C4); [2]): 270 nM | IC50 (HDAC6): > 900 nM

N#Cc1cncc(-c2cnc([C@@H](N)CCCCCC(=O)c3ncco3)[nH]2)n1 [Example 133, 6-{2-[(1S)-1-amino-7-(1,3-oxazol-2-yl)-7-oxoheptyl]-1H-imidazol-5-yl}pyrazine-2-carbonitrile]
EC50 (KARN cells (Jurkat 2C4); [1]): 23000 nM | EC50 (KARN cells (Jurkat 2C4); [2]): 25000 nM

N[C@@H](CCCCCC(=O)c1ccon1)c1ccn(-c2ccc(F)cc2)n1 [Example 120, (7S)-7-amino-7-[1-(4-fluorophenyl)-1H-pyrazol-3-yl]-1-isoxazol-3-ylheptan-1-one]
IC50 (HDAC6): 45000 nM

Cc1ccc2cc(-c3c[nH]c([C@H](CCCCCC(=O)c4ccon4)NC(=O)C4CN(C)C4)n3)ccc2n1 [Example 43]
EC50 (KARN cells (Jurkat 2C4); [1]): 8.5 nM | EC50 (KARN cells (Jurkat 2C4); [2]): 14 nM | IC50 (HDAC6): 1800 nM

CN(C)CC(=O)N[C@@H](CCCCCC(=O)c1ncco1)c1[nH]c(-c2ccc(F)cc2)nc1Cl [Example 90]
EC50 (KARN cells (Jurkat 2C4); [1]): 14 nM | EC50 (KARN cells (Jurkat 2C4); [2]): 34 nM | IC50 (HDAC6): 26000 nM

COc1nc2ccccc2cc1-c1cnc([C@H](CCCCCC(=O)c2ncco2)NC(=O)C(C)(F)F)[nH]1 [Example 148, 2,2-difluoro-N-[(1S)-1-[5-(2-methoxyquinolin-3-yl)-1H-imidazol-2-yl]-7-(1,3-oxazol-2-yl)-7-oxoheptyl]propanamide]
EC50 (KARN cells (Jurkat 2C4); [1]): 54 nM | EC50 (KARN cells (Jurkat 2C4); [2]): 450 nM | IC50 (HDAC6): 3400 nM

O=C(N[C@@H](CCCCCC(=O)c1nccs1)c1nc(-c2ccc(F)cc2)c[nH]1)c1cncs1 [Example 7, (S)-N-(1-(4-(4-fluorophenyl)-1H-imidazol-2-yl)-7-oxo-7-(thiazol-2-yl)heptyl)thiazole-5-carboxamide]
EC50 (KARN cells (Jurkat 2C4); [1]): 23 nM | EC50 (KARN cells (Jurkat 2C4); [2]): 8400 nM | IC50 (HDAC6): 45000 nM

Cc1coc(C(=O)CCCCC[C@H](NC(=O)C2CCN(C)CC2)c2nc(-c3ccc(F)cc3)c[nH]2)n1 [Example 8, (S)-N-(1-(4-(4-fluorophenyl)-1H-imidazol-2-yl)-7-(4-methyloxazol-2-yl)-7-oxoheptyl)-1-methylpiperidine-4-carboxamide]
IC50 (HDAC6): 15000 nM

CN1CCC2(CC1)CC(C(=O)N[C@@H](CCCCCC(=O)c1ccon1)c1cc(-c3ccc4nn(C)cc4c3)on1)=NO2 [Example 177, N-{(1S)-7-isoxazol-3-yl-1-[5-(2-methyl-2H-indazol-5-yl)isoxazol-3-yl]-7-oxoheptyl}-8-methyl-1-oxa-2,8-diazaspiro[4.5]dec-2-ene-3-carboxamide]
EC50 (KARN cells (Jurkat 2C4); [1]): 33 nM | EC50 (KARN cells (Jurkat 2C4); [2]): 55 nM

CN(C)C1(C(=O)N[C@@H](CCCCCC(=O)c2ccon2)c2ncc(-c3ccccc3F)[nH]2)CC1 [Example 62]
EC50 (KARN cells (Jurkat 2C4); [1]): 50 nM | EC50 (KARN cells (Jurkat 2C4); [2]): 100 nM | IC50 (HDAC6): > 900 nM

N[C@@H](CCCCCC(=O)c1ncco1)c1ncc(-c2cc(OC3CCC3)ccc2F)[nH]1 [Example 130, (7S)-7-amino-7-{5-[5-(cyclobutyloxy)-2-fluorophenyl]-1H-imidazol-2-yl}-1-(1,3-oxazol-2-yl)heptan-1-one]
EC50 (KARN cells (Jurkat 2C4); [1]): 1600 nM | EC50 (KARN cells (Jurkat 2C4); [2]): 4600 nM | IC50 (HDAC6): > 900 nM

Cn1c(=O)ccc2cc(-c3c[nH]c([C@@H](N)CCCCCC(=O)c4ccon4)n3)ccc21 [Example 32, (S)-6-(2-(1-amino-7-(isoxazol-3-yl)-7-oxoheptyl)-1H-imidazol-4-yl)-1-methylquinolin-2(1H)-one]
EC50 (KARN cells (Jurkat 2C4); [1]): 26 nM | EC50 (KARN cells (Jurkat 2C4); [2]): 35 nM | IC50 (HDAC6): 15000 nM

COc1cc2c(ccc(=O)n2C)cc1-c1cnc([C@@H](N)CCCCCC(=O)c2ccon2)[nH]1 [Example 35, (S)-6-(2-(1-amino-7-(isoxazol-3-yl)-7-oxoheptyl)-1H-imidazol-5-yl)-7-methoxy-1-methylquinolin-2(1H)-one]
EC50 (KARN cells (Jurkat 2C4); [1]): 72 nM | EC50 (KARN cells (Jurkat 2C4); [2]): 50 nM | IC50 (HDAC6): 15000 nM

COc1cc2nc(C)ccc2cc1-c1c[nH]c([C@@H](N)CCCCCC(=O)c2ncco2)n1 [Example 12, (S)-7-amino-7-(5-(7-methoxy-2-methylquinolin-6-yl)-1H-imidazol-2-yl)-1-(oxazol-2-yl)heptan-1-one]
EC50 (KARN cells (Jurkat 2C4); [1]): 66 nM | EC50 (KARN cells (Jurkat 2C4); [2]): 80 nM | IC50 (HDAC6): 8300 nM

COCC(=O)N[C@@H](CCCCCC(=O)c1ncco1)c1ncc(-c2cc3ccccc3nc2OC)[nH]1 [Example 147, 2-methoxy-N-[(1S)-1-[5-(2-methoxyquinolin-3-yl)-1H-imidazol-2-yl]-7-(1,3-oxazol-2-yl)-7-oxoheptyl]acetamide]
EC50 (KARN cells (Jurkat 2C4); [1]): 50 nM | EC50 (KARN cells (Jurkat 2C4); [2]): 490 nM | IC50 (HDAC6): 15000 nM

Cn1cc2cc(-c3cc([C@@H](N)CCCCCC(=O)c4ccon4)no3)ccc2n1 [Example 126, (7S)-7-amino-1-isoxazol-3-yl-7-[5-(2-methyl-2H-indazol-5-yl)isoxazol-3-yl]heptan-1-one]
EC50 (KARN cells (Jurkat 2C4); [1]): 170 nM | EC50 (KARN cells (Jurkat 2C4); [2]): 250 nM | IC50 (HDAC6): > 900 nM

CN1CC(C(=O)N[C@@](C)(CCCCCC(=O)c2ccon2)c2ncc(-c3ccccc3F)[nH]2)C1 [Example 184, (S)-N-(2-(5-(2-fluorophenyl)-1H-imidazol-2-yl)-8-(isoxazol-3-yl)-8-oxooctan-2-yl)-1-methylazetidine-3-carboxamide]
EC50 (KARN cells (Jurkat 2C4); [1]): 56 nM | EC50 (KARN cells (Jurkat 2C4); [2]): 57 nM | IC50 (HDAC6): > 900 nM

O=C(CCCCC[C@H](NC(=O)c1cncs1)c1nc(-c2ccc(F)cc2)c[nH]1)c1ncco1 [Example 2, (S)-N-(1-(4-(4-fluorophenyl)-1H-imidazol-2-yl)-7-(oxazol-2-yl)-7-oxoheptyl)thiazole-5-carboxamide]
EC50 (KARN cells (Jurkat 2C4); [1]): 44 nM | EC50 (KARN cells (Jurkat 2C4); [2]): 97 nM | IC50 (HDAC6): 45000 nM

CN1CCC(C(=O)N[C@@H](CCCCCC(=O)c2ncco2)c2nc(-c3ccc(F)cc3)c[nH]2)CC1 [Example 3, (S)-N-(1-(4-(4-fluorophenyl)-1H-imidazol-2-yl)-7-(oxazol-2-yl)-7-oxoheptyl)-1-methylpiperidine-4-carboxamide]
EC50 (KARN cells (Jurkat 2C4); [1]): 18 nM | EC50 (KARN cells (Jurkat 2C4); [2]): 26 nM | IC50 (HDAC6): 45000 nM

CC(C(=O)N[C@@H](CCCCCC(=O)c1ccon1)c1ncc(-c2ccccc2F)[nH]1)N(C)C (some centres unmarked) [Example 61]
EC50 (KARN cells (Jurkat 2C4); [1]): 3.6 nM | EC50 (KARN cells (Jurkat 2C4); [2]): 5.8 nM | IC50 (HDAC6): > 900 nM

Cc1cc(C(=O)CCCCC[C@H](NC(=O)C2CN(C)C2)c2nc(-c3ccccc3F)c[nH]2)no1 [Example 59]
IC50 (HDAC6): 45000 nM

N[C@@H](CCCCCC(=O)c1ncco1)c1ncc(-c2ccc(-c3cnccn3)cc2)[nH]1 [Example 20]
EC50 (KARN cells (Jurkat 2C4); [1]): 450 nM | EC50 (KARN cells (Jurkat 2C4); [2]): 340 nM | IC50 (HDAC6): 45000 nM

N#Cc1cnc(-c2cnc([C@@H](N)CCCCCC(=O)c3ncco3)[nH]2)cn1 [Example 132, 5-{2-[(1S)-1-amino-7-(1,3-oxazol-2-yl)-7-oxoheptyl]-1H-imidazol-5-yl}pyrazine-2-carbonitrile]
EC50 (KARN cells (Jurkat 2C4); [1]): 25000 nM | EC50 (KARN cells (Jurkat 2C4); [2]): 30000 nM

NC(CCCCCC(=O)c1ccon1)c1cnn(-c2ccc(F)cc2)n1 (centres unmarked) [Example 123, 7-amino-7-[2-(4-fluorophenyl)-2H-1,2,3-triazol-4-yl]-1-isoxazol-3-ylheptan-1-one]
IC50 (HDAC6): 45000 nM
